From patent US20200308103A1, “NOVEL CRYSTALS OF HYDROXAMIC ACID DERIVATIVE, PRODUCTION METHOD THEREOF, AND PHARMACEUTICAL COMPOSITION” (FUJIFILM Toyama Chemical Co., Ltd., priority 2016, published 2020)
Read-outs that look alike come from different tables or passages of the source.

Columns and labels:
[1] = Stability (2): storage at 60° C. and relative humidity 75%, HPLC purity; assay type: physicochemical; settings: relative humidity 75%; for Stability: conclusion in words
Description: The type I crystals, the type II crystals, and the type III crystals were stored under conditions of 60° C. and a relative humidity of 75%.
These crystals were sampled over time, and their purity was measured by HPLC.
(§1) Measurement wavelength: 254 nm
Column: Ascentis Express C18, particle size: 5 μm, 4.6 mm in inside diameter×150 mm in length
(§2) Column temperature: 40° C.
(§3) Mobile phase A: water/acetic acid=1000/1 solution
(§4) Mobile phase B: acetonitrile/acetic acid=1000/1 solution

[2] = assay type: physicochemical
Description: The type I crystals and the type II crystals were mixed, suspended in a 40% aqueous acetonitrile solution, and stirred at 25° C.
(§5) The mixture was sampled over time, and the crystal form was measured by powder X-ray diffraction.

[3] = Stability (1): light irradiation, HPLC purity; assay type: physicochemical; settings: for Stability against light: 1,200,000 lx·hr, conclusion in words
Description: Test Example 5 Stability (1) The type I crystals, the type II crystals, and the type Ill crystals were placed in a light stability tester and irradiated with light (1,200,000 lx·hr) (light source: D65 lamp (FLR20S-D-EDL-D65/M)).
The purity of the crystals of each type was measured by HPLC.
as §1
Column: Ascentis Express C18 (Sigma-Aldrich Japan), particle diameter: 5 μm, inner diameter 4.6 mm×length 150 mm
as §2, §3, §4

[4] = Physical stability (2): type I + type II crystals suspended in acetonitrile, crystal form by powder X-ray diffraction; assay type: physicochemical; settings: acetonitrile (nonaqueous conditions), conclusion in words
Description: The type I crystals and the type 11 crystals were mixed, suspended in acetonitrile, and stirred at 5, 25, or 40° C.
as §5

[5] = assay type: physicochemical; remark: listed apart in the source
Description: The type I crystals and the type III crystals were mixed, suspended in acetonitrile, and stirred at 5, 25, or 40° C.
as §5

[6] = Hygroscopic properties (storage, weight change); assay type: physicochemical
Description: The type I crystals and the type III crystals were stored under conditions of 25° C. and a relative humidity of 97%.
These crystals were sampled over time, and the weights of the crystals were measured to determine the rates of change in weight.
Rate of change in weight (%)=((B−A)/A)×100
A: Weight of the crystals before the start of the test
B: Weight of the crystals after the start of the test

[7] = Solubility in aqueous sulfobutyl ether-β-cyclodextrin (SBEβCD) solution; assay type: physicochemical; settings: for solubility: aqueous with cosolvent or surfactant or cyclodextrin, thermodynamic from solid, read-out: Solubility (dissolved / not dissolved)
Description: 32.4 mL of water for injection was added to 6.00 g of sulfobutyl ether-β-cyclodextrin (CYCLOLAB Cyclodextrin Research & Development Laboratory Ltd.) (hereinafter also referred to as “SBEβCD”), and the solution was then stirred at 25° C. for 10 minutes. After the dissolution of the substance had been confirmed by visual observation, the mixed solution was cooled to 10° C. Thereafter, 0.50 g of type I crystal or type II crystal was added to the reaction mixture, and the obtained solution was then heated stepwise, until the crystal was dissolved in the solution.
32.5 mL of water for injection was added to 6.00 g of SBEβCD, and the solution was then stirred at 25° C. for 10 minutes. After the dissolution of the substance had been confirmed by visual observation, the mixed solution was cooled to 0° C., 5° C. or 10° C. Thereafter, 0.48 g of type 111 crystal was added to the reaction mixture, and the obtained solution was then stirred, until the crystal was dissolved in the solution.

[8] = molecular target: uridyldiphospho-3-O-acyl-N-acetylglucosamine deacetylase (LpxC) (Pseudomonas aeruginosa, UniProt P47205); settings: known from Patent Literature 1; cited from earlier work
Sequence of uridyldiphospho-3-O-acyl-N-acetylglucosamine deacetylase (LpxC) (P47205 whole entry): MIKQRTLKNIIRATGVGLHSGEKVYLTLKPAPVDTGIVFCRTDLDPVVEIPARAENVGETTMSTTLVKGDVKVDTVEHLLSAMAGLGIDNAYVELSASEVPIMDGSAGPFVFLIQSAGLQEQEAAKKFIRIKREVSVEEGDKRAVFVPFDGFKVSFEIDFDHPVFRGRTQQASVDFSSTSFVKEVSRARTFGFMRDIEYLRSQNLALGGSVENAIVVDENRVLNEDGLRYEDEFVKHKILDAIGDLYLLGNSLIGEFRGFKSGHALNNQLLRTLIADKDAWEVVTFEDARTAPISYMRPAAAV

[9] = after light irradiation 1,200,000 lx·hr, D65 lamp
[10] = light stability test, before start of test
[11] = 25° C., relative humidity 97%, 4 weeks

Compound | HPLC purity (%) ([1]; 4 weeks) | HPLC purity (%) ([1]; 7 weeks) | HPLC purity (%) ([1]; 13 weeks) | HPLC purity (%) ([1]; before start of test) | Physical stability / crystal transformation [2] | Stability against light [3] | HPLC purity (%) [3, 9] [%] | HPLC purity (%) [3, 10] [%] | Physical stability / crystal transformation [4] | Physical stability / crystal transformation [5] | Rate of change in weight (%) [6, 11] [%] | Temperature at which the crystal was dissolved in the solution [7] [°C] | Stability [1] | also measured
CNC(=O)[C@@](C)(C(=O)NO)N(C)C(=O)c1ccc(C#Cc2ccc([C@H](O)CO)cc2)cc1 [Type I crystals, (2S)-2-((4-((4-((1S)-1,2-dihydroxyethyl)phenyl)ethynyl)benzoyl)(methyl)amino)-N-hydroxy-N′,2-dimethylmalonamide, reference compound] | 98.7 | 97.6 | 90.4 | 99.2 | transformed to the type II crystals | reduced | 96.1 | 99.2 | transformed to the type III crystals | transformed to the type III crystals | 0.80 | 25 | – | HPLC purity (%) ([1]; 13 weeks, listed as type I crystals): approximately 90%; Rate of change in weight (%) ([6]; 25° C., relative humidity 97%, 13 weeks): 1.09%; Rate of change in weight (%) ([6]; 25° C., relative humidity 97%, 13 weeks, listed as type I crystals): ≥ 1%; solubility ([7]; 10 °C, 10 ° C.): < 15.4 mg/mL; solubility ([7]; 15 °C, 15 ° C.): < 15.4 mg/mL; solubility ([7]; 20 °C, 20 ° C.): < 15.4 mg/mL; solubility ([7]; 25 °C, 25 ° C.): > 15.4 mg/mL
CNC(=O)[C@@](C)(C(=O)NO)N(C)C(=O)c1ccc(C#Cc2ccc([C@H](O)CO)cc2)cc1 [compound A, (2S)-2-((4-((4-((1S)-1,2-dihydroxyethyl)phenyl)ethynyl)benzoyl)(methyl)amino)-N-hydroxy-N′,2-dimethylmalonamide] | – | – | – | – | – | – | – | – | – | – | – | – | – | LpxC inhibitory activity [8]: excellent
CNC(=O)[C@@](C)(C(=O)NO)N(C)C(=O)c1ccc(C#Cc2ccc([C@H](O)CO)cc2)cc1 [Type III crystals, (2S)-2-((4-((4-((1S)-1,2-dihydroxyethyl)phenyl)ethynyl)benzoyl)(methyl)amino)-N-hydroxy-N′,2-dimethylmalonamide] | 99.3 | 98.6 | 94.8 | 99.5 | – | more stable against light than the type I crystals | 99.4 | 99.5 | more stable than the type I crystals and the type II crystals | more stable than the type I crystals | 0.10 | ≤ 0 | more stable than the type I crystals | HPLC purity (%) ([1]; 13 weeks, listed as type III crystals): approximately 95%; Stability ([1]; listed as type Ill crystals): most stable; Rate of change in weight (%) ([6]; 25° C., relative humidity 97%, 16 weeks): 0.03%; Rate of change in weight ([6]; 25° C., relative humidity 97%, time not stated): ≤ 0.1%; Hygroscopic properties ([6]; conclusion in words): low; solubility ([7]; 0 °C, 0 ° C.): > 14.8 mg/mL; solubility ([7]; 5 °C, 5 ° C.): > 14.8 mg/mL
CNC(=O)[C@@](C)(C(=O)NO)N(C)C(=O)c1ccc(C#Cc2ccc([C@H](O)CO)cc2)cc1 [Type II crystals, (2S)-2-((4-((4-((1S)-1,2-dihydroxyethyl)phenyl)ethynyl)benzoyl)(methyl)amino)-N-hydroxy-N′,2-dimethylmalonamide] | 98.7 | 97.7 | 91.2 | 99.1 | more stable than the type I crystals | – | 98.5 | 99.1 | transformed to the type III crystals | – | – | 25 | more stable than the type I crystals | HPLC purity (%) ([1]; 13 weeks, listed as type II crystals): approximately 91%; Stability against light ([3]; listed as type 11 crystals): more stable against light than the type I crystals
